# Experimental data reported in EP4389751A1, “HETEROCYCLIC COMPOUNDS AND USES THEREOF” (Kumquat Biosciences Inc., priority 2021, dated 2024).
# pIC50: −log10 of the molar value. Read-outs that look alike come from different tables or passages of the source.
# What was measured:
# GP2D cells = experiment: Cell proliferation assay (CellTiter-Glo), K-Ras G12D cells; type: cell-based; conditions: GP2D cells (K-Ras G12D); read-out: Inhibition of GP2D Cells (IC50)
# Method in brief: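 GP2D (K-Ras G12D) cells seeded in DMEM with 2 mM glutamine and 10% FBS, then dosed next day with a dilution series (e.g., 9-point 3-fold). Viability read by CellTiter-Glo luminescence after about 5 days. IC50 from four-parameter fit.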
# A549 cells = experiment: Cell proliferation assay (CellTiter-Glo), K-Ras G12S cells; type: cell-based; conditions: for pIC50: Homo sapiens, A549, A549 cells (K-Ras G12S), read-out: Inhibition of A549 Cells (IC50); for ratio of IC50 against a G12D cell line to IC50 against a G12S cell line: K-Ras G12D cell line such as GP2D relative to K-Ras G12S cell line such as A549, greater than 1, 2, 3, 4, 5, 10, 15 or even greater, 8640 min
# Protocol: A549 (ATCC CRL-185) and LS123 (ATCC CRL-255) cell lines comprise a G12S mutation and can be used to assess Ras cellular signaling in vitro, e.g., in response to the compounds herein. A549 culture medium is prepared with RPMI-1640 and 10% heat-inactivated FBS. LS123 culture medium is prepared with RPMI-1640 and 10% heat-inactivated FBS. A CellTiter-Glo (CTG) luminescent based assay (Promega) is used to assess growth of the cells, as a measurement of the ability of the compounds herein to inhibit Ras signaling in the cells. The cells (e.g., 800 per well) are seeded in their respective culture medium in standard tissue culture-treated 384-well format plates (Falcon #08-772-116) or ultra-low attachment surface 384-well format plates (S-Bio # MS-9384WZ). The day after plating, cells are treated with a dilution series (e.g., a 10 point 3-fold dilution series) of the compounds herein (e.g., approximately 40 µl final volume per well). Cell viability can be monitored (e.g., approximately 6 days later) according to the manufacturer's recommended instructions, where the CellTiter-Glo reagent is added (e.g., approximately 10 µl), vigorously mixed, covered, and placed on a plate shaker (e.g., approximately for 20 min) to ensure sufficient cell lysis prior to assessment of luminescent signal. The IC50 values are determined using the four parameter fit. The resulting IC50 value is a measurement of the ability of the compounds herein to reduce cell growth of Ras-driven cells (e.g., tumor cell lines) in vitro and/or in vivo.
# K-Ras G12S = target: T1, K-Ras G12S (Homo sapiens, UniProt P01116, G12S); experiment: HTRF assay of the K-Ras / SOS1 interaction; type: biochemical; conditions: IC50 (against K-Ras G12D) to IC50 (against K-Ras G12S)
# T1 construct: made in house; host or cells: E. coli (e.g., BL21 (DE3))
# Method in brief: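 GST-K-Ras G12S with anti-GST-Eu donor and His-hSOS1 with anti-6His-XL665 acceptor in ~5 mM HEPES pH 7.4, ~150 mM NaCl, 1 mM DTT, 0.05% BSA, 0.0025% Igepal. Read after ~10 min or longer; IC50 from 665/620 nm ratio, duplicates at 10 µM down to 0.01 µM.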
# [1] = target: T2, KRAS protein (His-tagged GDP-loaded G12S 1-169) (Homo sapiens, UniProt P01116, G12S); experiment: Covalent modification of KRAS protein, intact-protein LC-MS; type: binding; conditions: 24hrs at room temperature, KRAS protein ~2 µM
# T2 construct: His-tagged GDP-loaded G12S 1-169
# Method in brief: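 His-tagged GDP-loaded KRAS 1-169 (~2 µM) incubated with compound 24 h at room temperature, then quenched with formic acid. Intact-protein LC-ESI-MS on C4 column; deconvoluted peak intensities of unmodified and adducted protein give percent covalent modification.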
SMILES,pIC50 (GP2D cells),pIC50 (A549 cells; bin 500 nM to 5 µM),pIC50 (A549 cells; bin ≤ 500 nM),ratio of IC50 against a G12D cell line to IC50 against a G12S cell line (A549 cells),Ratio of IC50 KRAS G12D vs. IC50 KRAS G12S (K-Ras G12S),% G12S Modification at 24 hr. [1]
"N#Cc1c(N)sc2c(F)ccc(-c3c(Cl)cc4c(N5CC6CN(C(=O)n7cncn7)C6C5)nc(OC[C@@]56CCCN5C[C@H](F)C6)nc4c3F)c12 (stereo partly drawn) [Compound A306, 4-(4-(6-(1H-1,2,4-triazole-1-carbonyl)-3,6-diazabicyclo[3.2.0]heptan-3-yl)-6-chloro-8-fluoro-2-(((2R,7aS)-2-fluorotetrahydro-1H-pyrrolizin-7a(5H)-yl)methoxy)quinazolin-7-yl)-2-amino-7-fluorobenzo[b]thiophene-3-carbonitrile]",≥ 6.00,5.30 to 6.30,,,,
"Nc1nc2c(-c3c(Cl)cc4c(N5CC6CN(C(=O)n7cncn7)C6C5)nc(OC[C@@]56CCCN5C[C@H](F)C6)nc4c3F)ccc(F)c2s1 (stereo partly drawn) [Compound A177, (3-(7-(2-amino-7-fluorobenzo[d]thiazol-4-yl)-6-chloro-8-fluoro-2-(((2R,7aS)-2-fluorotetrahydro-1H-pyrrolizin-7a(5H)-yl)methoxy)quinazolin-4-yl)-3,6-diazabicyclo[3.2.0]heptan-6-yl)(1H-1,2,4-triazol-1-yl)methanone]",≥ 6.00,5.30 to 6.30,,,,
"Cc1nc(C(C)C)nn1C(=O)N1CC2(CCCCN(c3nc(OC[C@@]45CCCN4C[C@H](F)C5)nc4c(F)c(-c5ccc(F)c6sc(N)c(C#N)c56)c(Cl)cc34)C2)C1 [Compound A305, 2-amino-4-(6-chloro-8-fluoro-2-(((2R,7aS)-2-fluorotetrahydro-1H-pyrrolizin-7 a(5H)-yl)methoxy)-4-(2-(3-isopropyl-5-methyl-1H-1,2,4-triazole-1-carbonyl)-2,6-diazaspiro[3.6]decan-6-yl)quinazolin-7-yl)-7-fluorobenzo[b]thiophene-3-carbonitrile]",5.00 to 6.00,,≥ 6.30,greater than 1,,
"Cc1nc(C)n(C(=O)N2CC3(CCCCN(c4nc(OC[C@@]56CCCN5C[C@H](F)C6)nc5c(F)c(-c6ccc(F)c7sc(N)c(C#N)c67)c(Cl)cc45)C3)C2)n1 [Compound A116, 2-amino-4-(6-chloro-4-(2-(3,5-dimethyl-1H-1,2,4-triazole-1-carbonyl)-2,6-diazaspiro[3.6]decan-6-yl)-8-fluoro-2-(((2R,7aS)-2-fluorotetrahydro-1H-pyrrolizin-7a(5H)-yl)methoxy)quinazolin-7-yl)-7-fluorobenzo[b]thiophene-3-carbonitrile]",≥ 6.00,,≥ 6.30,,,
"N#Cc1c(N)sc2c(F)ccc(-c3c(Cl)cc4c(N5CCC6CN(C(=O)Nc7ncccn7)CCC65)nc(OC[C@@]56CCCN5C[C@H](F)C6)nc4c3F)c12 (stereo partly drawn) [Compound A251, 1-(7-(2-amino-3-cyano-7-fluorobenzo[b]thiophen-4-yl)-6-chloro-8-fluoro-2-(((2R,7aS)-2-fluorotetrahydro-1H-pyrrolizin-7a(5H)-yl)methoxy)quinazolin-4-yl)-N-(pyrimidin-2-yl)octahydro-5H-pyrrolo[3,2-c]pyridine-5-carboxamide]",5.00 to 6.00,,≥ 6.30,greater than 1,,
"C#Cc1c(F)ccc2cc(O)cc(-c3ncc4c(N5CC6CCC(C5)N6C(=O)n5cc(C#N)cn5)nc(OC[C@@]56CCCN5C[C@H](F)C6)nc4c3F)c12 [Compound A143, 1-(3-(7-(8-ethynyl-7-fluoro-3-hydroxynaphthalen-1-yl)-8-fluoro-2-(((2R,7aS)-2-fluorotetrahydro-1H-pyrrolizin-7a(5H)-yl)methoxy)pyrido[4,3-d]pyrimidin-4-yl)-3,8-diazabicyclo[3.2. 1]octane-8-carbonyl)-1H-pyrazole-4-carbonitrile]",≥ 6.00,,≥ 6.30,,,
"Cc1ncn(C(=O)N2CC3CN(c4nc(OC[C@@]56CCCN5C[C@H](F)C6)nc5c(F)c(-c6ccc(F)c7sc(N)c(C#N)c67)c(Cl)cc45)CC32)n1 (stereo partly drawn) [Compound A196, 2-amino-4-(6-chloro-8-fluoro-2-(((2R,7aS)-2-fluorotetrahydro-1H-pyrrolizin-7 a(5H)-yl)methoxy)-4-(6-(3-methyl-1H-1,2,4-triazole-1-carbonyl)-3,6-diazabicyclo[3.2.0]heptan-3-yl)quinazolin-7-yl)-7-fluorobenzo[b]thiophene-3-carbonitrile]",≥ 6.00,,≥ 6.30,,,
"N#Cc1c(N)sc2c(F)ccc(-c3c(Cl)cc4c(N5CCC6CN(C(=O)Nc7ncccn7)CCC65)nc(OC[C@@]56CCCN5C[C@H](F)C6)nc4c3F)c12 (single isomer, unassigned) [Compound A271]",,5.30 to 6.30,,,A (A: indicates that the ratio of IC50 against KrasG12D vs. IC50 against KrasG12S is 1-fold or greater),
"N#Cc1nccn1C(=O)N1CCN(c2nc(OC[C@@]34CCCN3C[C@H](F)C4)nc3c(F)c(-c4ccc(F)c5sc(N)nc45)c(Cl)cc23)CC(F)(F)C1 [Compound A204, 1-(4-(7-(2-amino-7-fluorobenzo[d]thiazol-4-yl)-6-chloro-8-fluoro-2-(((2R,7aS)-2-fluorotetrahydro-1H-pyrrolizin-7a(5H)-yl)methoxy)quinazolin-4-yl)-6,6-difluoro-1,4-diazepane-1 - carbonyl)-1H-imidazole-2-carbonitrile]",5.00 to 6.00,,,,A (A: indicates that the ratio of IC50 against KrasG12D vs. IC50 against KrasG12S is 1-fold or greater),++ (++ indicates between about 1%- 20% labelling)
"CC1(C)CN(c2nc(OC[C@@]34CCCN3C[C@H](F)C4)nc3c(F)c(-c4ccc(F)c5sc(N)c(C#N)c45)c(Cl)cc23)CC2(CN(C(=O)n3cncn3)C2)O1 [Compound A296, 2-amino-4-(6-chloro-4-(6,6-dimethyl-2-(1H-1,2,4-triazole-1-carbonyl)-5-oxa-2,8-diazaspiro[3.5]nonan-8-yl)-8-fluoro-2-(((2R,7aS)-2-fluorotetrahydro-1H-pyrrolizin-7a(5H)-yl)methoxy)quinazolin-7-yl)-7-fluorobenzo[b]thiophene-3-carbonitrile]",5.00 to 6.00,,,,A (A: indicates that the ratio of IC50 against KrasG12D vs. IC50 against KrasG12S is 1-fold or greater),+++ (+++ indicates greater than 20% labelling)
"Nc1nc2c(-c3c(Cl)cc4c(N5CCC56CCCN(C(=O)n5cncn5)C6)nc(OCC56CCCN5CC(F)C6)nc4c3F)ccc(F)c2s1 (stereo not drawn) [Compound A197, (1-(7-(2-amino-7-fluorobenzo[d]thiazol-4-yl)-6-chloro-8-fluoro-2-((2-fluorotetrahydro-1H-pyrrolizin-7a(5H)-yl)methoxy)quinazolin-4-yl)-1,6-diazaspiro[3.5]nonan-6-yl)(1H-1,2,4-triazol-1-yl)methanone]",5.00 to 6.00,,,,A (A: indicates that the ratio of IC50 against KrasG12D vs. IC50 against KrasG12S is 1-fold or greater),+++ (+++ indicates greater than 20% labelling)
"N#C[C@H]1CN(c2nc(OC[C@@]34CCCN3C[C@H](F)C4)nc3c(F)c(-c4ccc(F)c5sc(N)nc45)c(Cl)cc23)CCN1C(=O)n1cncn1 [Compound A157, (2R)-4-(7-(2-amino-7-fluorobenzo[d]thiazol-4-yl)-6-chloro-8-fluoro-2-(((2R,7aS)-2-fluorotetrahydro-1H-pyrrolizin-7a(5H)-yl)methoxy)quinazolin-4-yl)-1-(1H-1,2,4-triazole-1-carbonyl)piperazine-2-carbonitrile]",5.00 to 6.00,,,,A (A: indicates that the ratio of IC50 against KrasG12D vs. IC50 against KrasG12S is 1-fold or greater),++ (++ indicates between about 1%- 20% labelling)
